{
  "source": "patent US20260232710A1",
  "about": "“AGENTS, COMPOSITIONS, AND METHODS FOR SUPPORTING BEHAVIOURAL DEVELOPMENT” (SOCIÉTÉ DES PRODUITS NESTLÉ S.A., priority 2023, published 2026)",
  "test_system": "human breast milk-fed infants",
  "assay": "Regression association of breast milk HMO levels with IBQ-R negative affectivity in infants",
  "format": "in vivo",
  "protocol": "In some embodiments, social-emotional skills are determined by an Infant Behavior Questionnaire (IBQ), such as the IBQ-Revised (IBQ-R). The “IBQ-R (revised Infant Behavior Questionnaire) questionnaire” is a widely used parent-report measure for assessing dimensions of temperament along 14 scales, as reported below, in infants between 3 and 12 months of age (see e.g. Gartstein, M. A. and Rothbart, M. K., 2003. Infant behavior and development, 26(1), pp. 64-86).\nThe subject's negative affectivity can be determined by any suitable method. In some embodiments, the subject's negative affectivity is determined by an Infant Behavior Questionnaire (IBQ), for example the IBQ-Revised (IBQ-R). For example, negative affectivity may be a domain constructed out of the following scales on the IBQ-R: sadness, fear, distress to limitations, activity level, and falling reactivity. The one or more HMOs according to the present invention may reduce sadness, fear, and/or distress to limitations. The one or more HMOs according to the present invention may improve activity level and/or rate of recovery from distress.\nA total of 195 infants were tested. Breastmilk HMO levels were tested in breastmilk collected at two months and three months. Infant behaviours were assessed with an Infant Behaviour Questionnaire-Revised (IBQ-R). […]",
  "data": [
    {"substance": "Lacto-N-difucohexaose I [LNDFHI]", "values": [
      {"measurement": "IBQR", "setting": "breast milk collected at 2 months, negative affectivity of infants at 9 months, N=195", "result": "Reduced"},
      {"measurement": "association with negative emotions in infants", "setting": "infants at 9 months, breast milk HMO levels", "result": "associated with reduction in negative emotions"}
    ]}
  ]
}
